Data reported in patent US20120029187A1, “HALOALKYLSULFONANILIDE DERIVATIVE” (Nissan Chemical Industries, Ltd., priority 2009, published 2012).

Legend:
Assay type in all cases: in vivo
barnyardgrass [1] = assay: Test Example 1: herbicidal effects in preemergence treatment under submerged conditions; conditions: dose 2.52 g/a
Description: (§1) Test on the Herbicidal Effects in Preemergence Treatment on Weeds Under Submerged Conditions
(§2) Alluvial soil was put in 1/30000-are styrol cups and admixed with water so that it was submerged at a depth of 4 cm. In each cup, seeds of barnyardgrass, bulrush and ducksalad were sown together, and rice seedlings at the 2.5-leaf stage were transplanted. On the same day as the seeding, emulsifiable concentrates containing compounds of the present invention formulated in accordance with Formulation Example 2 were applied to the water surfaces at predetermined doses after diluted with water. The cups were placed in a greenhouse at 25 to 30° C. to grow the plants. Three weeks after the application, the herbicidal effects against various plants were determined on the following evaluation scale.
(§3) 5 mortality of 90% or above (nearly complete death)
(§4) 4 mortality of at least 70% and less than 90%
(§5) 3 mortality of at least 40% and less than 70%
(§6) 2 mortality of at least 20% and less than 40%
(§7) 1 mortality of at least 5% and less than 20%
(§8) 0 mortality of less than 5% (almost ineffective)
(§9) A: barnyardgrass, B: bulrush, C: ducksalad, D: large crabgrass, E: giant foxtail, F: wild oat, G: water foxtail, H: Italian ryegrass, I: velvetleaf, J: common ragweed, K: redroot pigweed, L: common lambsquater, M: posumbu knotweed, N: common chickweed, O: beadstraw, a: transplanted rice, b: corn, c: soybean, d: direct-seeded rice, e: wheat, f: sugar beet.
(§10) The doses (g/a) represents the amounts in g per 1 are (a) applied after adjustment of concentration adjustment.

bulrush [2] = assay: as above; conditions: dose 2.52 g/a
Description: as §1, §2, §3, §4, §5, §6, §7, §8, §9, §10

ducksalad [3] = assay: as above; conditions: dose 2.52 g/a
Description: as §1, §2, §3, §4, §5, §6, §7, §8, §9, §10

transplanted rice = assay: Test Example 1: preemergence treatment under submerged conditions, effect on crop; conditions: dose 2.52 g/a
Description: as §1, §2, §3, §4, §5, §6, §7, §8, §9, §10

barnyardgrass [4] = assay: Test Example 2: herbicidal effects during the vegetation period under submerged conditions; conditions: treatment during the vegetation period under submerged conditions; dose 2.52 g/a
Method: (§11) Test on the Herbicidal Effects on Weeds During the Vegetation Period Under Submerged Conditions
(§12) Alluvial soil was put in 1/30000-are styrol cups and admixed with water so that it was submerged at a depth of 4 cm. In each cup, seeds of barnyardgrass, bulrush and ducksalad were sown together, and the cups were placed in a greenhouse at 25 to 30° C. to grow the plants. When the barnyardgrass, bulrush and ducksalad reached the 1- or 2-leaf stage, emulsifiable concentrates containing compounds of the present invention formulated in accordance with Formulation Example 2 were applied to the water surfaces at predetermined doses after diluted with water. Three weeks after the application, the herbicidal effects against various plants were determined on the same evaluation scale as in Test Example 1.
as §9, §10

bulrush [5] = assay: as above; conditions: treatment during the vegetation period under submerged conditions; dose 2.52 g/a
Method: as §11, §12, §9, §10

ducksalad [6] = assay: as above; conditions: treatment during the vegetation period under submerged conditions; dose 2.52 g/a
Method: as §11, §12, §9, §10

Italian ryegrass [7] = assay: Test Example 3: herbicidal effects in soil treatment; conditions: dose 3.2 g/a
Description: (§13) Test on the Herbicidal Effects in Soil Treatment
(§14) Sterilized diluvial soil was put in plastic boxes with a length of 21 cm, a width of 13 cm and a depth of 7 cm, and seeds of barnyardgrass, large crabgrass, giant foxtail, wild oat, blackgrass, velvetleaf, common ragweed, redroot pigweed, common lambsquater, posumbu knotweed, common chickweed corn, soybean, rice, wheat and sugar beet were sown in spots and covered with an about 1.5 cm-thick soil layer. Emulsifiable concentrates containing compounds of the present invention formulated in accordance with Formulation Example 2 were uniformly applied to the soil surfaces at predetermined doses through a small sprayer after dilute with water. Three weeks after the application, the herbicidal effects against various plants were determined on the same evaluation scale as in Test Example 1.
as §9, §10

barnyardgrass [8] = assay: as above; conditions: dose 3.2 g/a
Description: as §13, §14, §9, §10

common chickweed [9] = assay: as above; conditions: dose 3.2 g/a
Description: as §13, §14, §9, §10

common lambsquater [10] = assay: as above; conditions: dose 3.2 g/a
Description: as §13, §14, §9, §10

common ragweed [11] = assay: as above; conditions: dose 3.2 g/a
Description: as §13, §14, §9, §10

giant foxtail [12] = assay: as above; conditions: dose 3.2 g/a
Description: as §13, §14, §9, §10

large crabgrass [13] = assay: as above; conditions: dose 3.2 g/a
Description: as §13, §14, §9, §10

posumbu knotweed [14] = assay: as above; conditions: dose 3.2 g/a
Description: as §13, §14, §9, §10

redroot pigweed [15] = assay: as above; conditions: dose 3.2 g/a
Description: as §13, §14, §9, §10

water foxtail [16] = assay: as above; conditions: dose 3.2 g/a
Description: as §13, §14, §9, §10

Italian ryegrass [17] = assay: Test Example 4: herbicidal effect in foliage treatment; conditions: dose 3.2 g/a, three weeks after application
Description: (§15) Test on the Herbicidal Effect in Foliage Treatment
as §14, with “chickweed,” for “chickweed”, “The boxes were placed in a greenhouse at 25 to 30° C. to grow the plants. After 14 days, emulsifiable” for “Emulsifiable”, “foliage” for “soil surfaces”, “diluted” for “dilute”
as §9, §10

barnyardgrass [18] = assay: as above; conditions: dose 3.2 g/a, three weeks after application
Description: as §15
as §14, with “chickweed,” for “chickweed”, “The boxes were placed in a greenhouse at 25 to 30° C. to grow the plants. After 14 days, emulsifiable” for “Emulsifiable”, “foliage” for “soil surfaces”, “diluted” for “dilute”
as §9, §10

beadstraw = assay: as above; conditions: dose 3.2 g/a, three weeks after application
Description: as §15
as §14, with “chickweed,” for “chickweed”, “The boxes were placed in a greenhouse at 25 to 30° C. to grow the plants. After 14 days, emulsifiable” for “Emulsifiable”, “foliage” for “soil surfaces”, “diluted” for “dilute”
as §9, §10

common chickweed [19] = assay: as above; conditions: dose 3.2 g/a, three weeks after application
Description: as §15
as §14, with “chickweed,” for “chickweed”, “The boxes were placed in a greenhouse at 25 to 30° C. to grow the plants. After 14 days, emulsifiable” for “Emulsifiable”, “foliage” for “soil surfaces”, “diluted” for “dilute”
as §9, §10

common lambsquater [20] = assay: as above; conditions: dose 3.2 g/a, three weeks after application
Description: as §15
as §14, with “chickweed,” for “chickweed”, “The boxes were placed in a greenhouse at 25 to 30° C. to grow the plants. After 14 days, emulsifiable” for “Emulsifiable”, “foliage” for “soil surfaces”, “diluted” for “dilute”
as §9, §10

common ragweed [21] = assay: as above; conditions: dose 3.2 g/a, three weeks after application
Description: as §15
as §14, with “chickweed,” for “chickweed”, “The boxes were placed in a greenhouse at 25 to 30° C. to grow the plants. After 14 days, emulsifiable” for “Emulsifiable”, “foliage” for “soil surfaces”, “diluted” for “dilute”
as §9, §10

giant foxtail [22] = assay: as above; conditions: dose 3.2 g/a, three weeks after application
Description: as §15
as §14, with “chickweed,” for “chickweed”, “The boxes were placed in a greenhouse at 25 to 30° C. to grow the plants. After 14 days, emulsifiable” for “Emulsifiable”, “foliage” for “soil surfaces”, “diluted” for “dilute”
as §9, §10

large crabgrass [23] = assay: as above; conditions: dose 3.2 g/a, three weeks after application
Description: as §15
as §14, with “chickweed,” for “chickweed”, “The boxes were placed in a greenhouse at 25 to 30° C. to grow the plants. After 14 days, emulsifiable” for “Emulsifiable”, “foliage” for “soil surfaces”, “diluted” for “dilute”
as §9, §10

posumbu knotweed [24] = assay: as above; conditions: dose 3.2 g/a, three weeks after application
Description: as §15
as §14, with “chickweed,” for “chickweed”, “The boxes were placed in a greenhouse at 25 to 30° C. to grow the plants. After 14 days, emulsifiable” for “Emulsifiable”, “foliage” for “soil surfaces”, “diluted” for “dilute”
as §9, §10

redroot pigweed [25] = assay: as above; conditions: dose 3.2 g/a, three weeks after application
Description: as §15
as §14, with “chickweed,” for “chickweed”, “The boxes were placed in a greenhouse at 25 to 30° C. to grow the plants. After 14 days, emulsifiable” for “Emulsifiable”, “foliage” for “soil surfaces”, “diluted” for “dilute”
as §9, §10

velvetleaf = assay: as above; conditions: dose 3.2 g/a, three weeks after application
Description: as §15
as §14, with “chickweed,” for “chickweed”, “The boxes were placed in a greenhouse at 25 to 30° C. to grow the plants. After 14 days, emulsifiable” for “Emulsifiable”, “foliage” for “soil surfaces”, “diluted” for “dilute”
as §9, §10

water foxtail [26] = assay: as above; conditions: dose 3.2 g/a, three weeks after application
Description: as §15
as §14, with “chickweed,” for “chickweed”, “The boxes were placed in a greenhouse at 25 to 30° C. to grow the plants. After 14 days, emulsifiable” for “Emulsifiable”, “foliage” for “soil surfaces”, “diluted” for “dilute”
as §9, §10

Compound: CC(C)COC(=O)N(c1ccccc1CN1COC(C)(C(F)(F)F)CC1=O)S(=O)(=O)C(F)(F)F (centres unmarked) [II-50]
- A: barnyardgrass, herbicidal effect (evaluation scale 0-5) (barnyardgrass [1]): 5 (mortality of 90% or above (nearly complete death))
- B: bulrush, herbicidal effect (evaluation scale 0-5) (bulrush [2]): 5 (mortality of 90% or above (nearly complete death))
- C: ducksalad, herbicidal effect (evaluation scale 0-5) (ducksalad [3]): 5 (mortality of 90% or above (nearly complete death))
- a: transplanted rice, effect on crop (evaluation scale 0-5) (transplanted rice): 0 (mortality of less than 5% (almost ineffective))
- A: barnyardgrass, herbicidal effect (evaluation scale 0-5) (barnyardgrass [4]): 5 (mortality of 90% or above (nearly complete death))
- B: bulrush, herbicidal effect (evaluation scale 0-5) (bulrush [5]): 5 (mortality of 90% or above (nearly complete death))
- C: ducksalad, herbicidal effect (evaluation scale 0-5) (ducksalad [6]): 5 (mortality of 90% or above (nearly complete death))
- H: Italian ryegrass, herbicidal effect (evaluation scale 0-5) (Italian ryegrass [7]): 0 (mortality of less than 5% (almost ineffective))
- A: barnyardgrass, herbicidal effect (evaluation scale 0-5) (barnyardgrass [8]): 4 (mortality of at least 70% and less than 90%)
- N: common chickweed, herbicidal effect (evaluation scale 0-5) (common chickweed [9]): 3 (mortality of at least 40% and less than 70%)
- L: common lambsquater, herbicidal effect (evaluation scale 0-5) (common lambsquater [10]): 3 (mortality of at least 40% and less than 70%)
- J: common ragweed, herbicidal effect (evaluation scale 0-5) (common ragweed [11]): 3 (mortality of at least 40% and less than 70%)
- E: giant foxtail, herbicidal effect (evaluation scale 0-5) (giant foxtail [12]): 2 (mortality of at least 20% and less than 40%)
- D: large crabgrass, herbicidal effect (evaluation scale 0-5) (large crabgrass [13]): 3 (mortality of at least 40% and less than 70%)
- M: posumbu knotweed, herbicidal effect (evaluation scale 0-5) (posumbu knotweed [14]): 0 (mortality of less than 5% (almost ineffective))
- K: redroot pigweed, herbicidal effect (evaluation scale 0-5) (redroot pigweed [15]): 0 (mortality of less than 5% (almost ineffective))
- G: water foxtail, herbicidal effect (evaluation scale 0-5) (water foxtail [16]): 4 (mortality of at least 70% and less than 90%)
- H: Italian ryegrass, herbicidal effect (Italian ryegrass [17]): 0 (mortality of less than 5% (almost ineffective))
- A: barnyardgrass, herbicidal effect (barnyardgrass [18]): 3 (mortality of at least 40% and less than 70%)
- O: beadstraw, herbicidal effect (beadstraw): 4 (mortality of at least 70% and less than 90%)
- N: common chickweed, herbicidal effect (common chickweed [19]): 3 (mortality of at least 40% and less than 70%)
- L: common lambsquater, herbicidal effect (common lambsquater [20]): 2 (mortality of at least 20% and less than 40%)
- J: common ragweed, herbicidal effect (common ragweed [21]): 3 (mortality of at least 40% and less than 70%)
- E: giant foxtail, herbicidal effect (giant foxtail [22]): 0 (mortality of less than 5% (almost ineffective))
- D: large crabgrass, herbicidal effect (large crabgrass [23]): 0 (mortality of less than 5% (almost ineffective))
- M: posumbu knotweed, herbicidal effect (posumbu knotweed [24]): 0 (mortality of less than 5% (almost ineffective))
- K: redroot pigweed, herbicidal effect (redroot pigweed [25]): 0 (mortality of less than 5% (almost ineffective))
- I: velvetleaf, herbicidal effect (velvetleaf): 0 (mortality of less than 5% (almost ineffective))
- G: water foxtail, herbicidal effect (water foxtail [26]): 1 (mortality of at least 5% and less than 20%)
